# System: batrachotoxin (BTX) binding site (binding site 2) of the sodium channel
# Test: Bond test on the sodium channel, binding site 2 (BTX bond), [3H]-batrachotoxinin A20 α-benzoate displacement
# Conditions: rat cerebrocortex synaptosomes
row,Structure (SMILES),"BTX bond, 10 μM, % inhibition [%]"
1,"Cc1ccc(S(=O)(=O)N2CCC3(CC2)CC(C(=O)N2CCN(C(C)c4ccccc4)CC2)=NO3)cc1 (stereo not drawn) [Example 32, [4-(1-phenyl-ethyl)-piperazin-l-yl]-[8-(toluene-4-sulphonyl)-1-oxa-2,8-diaza-spiro[4,5]dec-2-en-3-yl]-methanone]",66
2,"O=C(NCc1ccccc1)C1=NOC2(CCN(S(=O)(=O)c3cccs3)CC2)C1 [Example 136, 8-(thiophene-2-sulphonyl)-1-oxa-2,8-diaza-spiro[4,5]dec-2-ene-3-carboxylic acid benzylamide]",44
3,"CC(Cc1ccc(Cl)cc1)NC(=O)C1=NOC2(CCN(S(=O)(=O)c3ccc(Cl)s3)CC2)C1 (stereo not drawn) [Example 168, 8-(5-chloro-thiophene-2-sulphonyl)-1-oxa-2,8-diaza-spiro[4,5]dec-2-ene-3-carboxylic acid [2-(4-chloro-phenyl)-1-methyl-ethyl]-amide]",69
4,"N#CCCN(Cc1cccnc1)C(=O)C1=NOC2(CCN(S(=O)(=O)c3cc(Cl)ccc3Cl)CC2)C1 [Example 99, 8-(2,5-dichloro-benzenesulphonyl)-1-oxa-2,8-diaza-spiro[4,5]dec-2-ene-3-carboxylic acid (2-cyano-ethyl)-pyridin-3-ylmethyl-amide]",50
5,"Cc1ccc(F)cc1S(=O)(=O)N1CCC2(CC1)CC(C(=O)NCc1cccs1)=NO2 [Example 150, 8-(5-fluoro-2-methyl-benzenesulphonyl)-1-oxa-2,8-diaza-spiro[4,5]dec-2-ene-3-carboxylic acid (thiophen-2-ylmethyl)-amide]",86
6,"CC(=O)N1CCC2(CC1)CC(C(=O)NCc1ccccc1)=NO2 [Example 48, 8-acetyl-1-oxa-2,8-diaza-spiro[4,5]dec-2-ene-3-carboxylic acid benzylamide]",43
7,"O=C(C1=NOC2(CCN(S(=O)(=O)c3cccc(C(F)(F)F)c3)CC2)C1)N1CCN(CCCc2ccccc2)CC1 [Example 83, [4-(3-phenyl-propyl)-piperazin-1-yl]-[8-(3-trifluoromethyl-benzenesulphonyl)-1-oxa-2,8-diaza-spiro[4,5]dec-2-en-3-yl]-methanone]",72
8,O=C(NCc1cccs1)C1=NOC2(CCN(C(=O)c3cccc(Cl)c3)CC2)C1 [Example 208],74
9,O=C(NCCc1cccc(C(F)(F)F)c1)C1=NOC2(CCN(S(=O)(=O)c3ccc(F)cc3)CC2)C1 [Example 196],51
10,"CN(CCc1c[nH]c2ccccc12)C(=O)C1=NOC2(CCN(S(=O)(=O)c3ccc(OC(F)(F)F)cc3)CC2)C1 [Example 16, 8-(4-trifluoromethoxy-benzenesulphonyl)-1-oxa-2,8-diaza-spiro[4,5]dec-2-ene-3 carboxylic acid [2-(1 H-indo1-3-yl)-ethyl]-methyl-amide]",60
11,"O=C(NCC1COc2ccccc2O1)C1=NOC2(CCN(S(=O)(=O)c3cccs3)CC2)C1 (stereo not drawn) [Example 21, 8-(thiophene-2-sulphonyl)-1-oxa-2,8-diaza-spiro[4,5]dec-2-ene-3-carboxylic acid (2,3-dihydro-benzo[1,4]dioxin-2-ylmethyl)-amide]",63
12,"O=C(C1=NOC2(CCN(S(=O)(=O)c3ccc(F)cc3)CC2)C1)N1CCN(CCCc2ccccc2)CC1 [Example 186, [8-(4-fluoro-benzenesulphonyl)-1-oxa-2,8-diaza-spiro[4,5]dec-2-en-3-yl]-[4-(3-phenyl-propyl)-piperazin-1-yl]-methanone]",56
13,"O=C(NC1CCN(Cc2ccc3ccccc3c2)C1)C1=NOC2(CCN(S(=O)(=O)c3ccc(Cl)s3)CC2)C1 (stereo not drawn) [Example 50, 8-(5-chloro-thiophene-2-sulphonyl)-1-oxa-2,8-diaza-spiro[4,5]dec-2-ene-3 carboxylic acid (1-naphthalen-2-ylmethyl-pyrrolidin-3-yl)-amide]",87
14,"O=C(NC1CCCC1OCc1ccccc1)C1=NOC2(CCN(S(=O)(=O)c3cccs3)CC2)C1 (stereo not drawn) [Example 47, 8-(thiophene-2-sulphonyl)-1-oxa-2,8-diaza-spiro[4,5]dec-2-ene-3-carboxylic acid (2-benzyloxy-cyclopentyl)-amide]",71
15,"O=C(NCc1cccs1)C1=NOC2(CCN(C(=O)c3ccccc3Cl)CC2)C1 [Example 152, 8-(2-chloro-benzoyl)-1-oxa-2,8-diaza-spiro[4,5]dec-2-ene-3-carboxylic acid (thiophen-2-ylmethyl)-amide]",56
16,"COc1cccc(CCNC(=O)C2=NOC3(CCN(S(=O)(=O)c4ccc(F)cc4)CC3)C2)c1 [Example 124, 8-(4-fluoro-benzenesulphonyl)-1-oxa-2,8-diaza-spiro[4,5]dec-2-ene-3-carboxylic acid [2-(3-methoxy-phenyl)-ethyl]-amide]",54
17,"Cc1ccc([N+](=O)[O-])cc1S(=O)(=O)N1CCC2(CC1)CC(C(=O)NCCN(C)C)=NO2 [Example 19, 8-(2-methyl-5-nitro-benzenesulphonyl)-1-oxa-2,8-diaza-spiro[4,5]dec-2-ene-3 carboxylic acid (2-dimethylamino-ethyl)-amide]",66
18,"Cc1onc(-c2c(Cl)cccc2Cl)c1C(=O)N1CCC2(CC1)CC(C(=O)NCc1cccs1)=NO2 [Example 197, 8-[3-(2,6-dichloro-phenyl)-5-methyl-isoxazole-4-carbonyl]-1-oxa-2,8-diaza-spiro[4,5]dec-2-ene-3-carboxylic acid (thiophen-2-ylmethyl)-amide]",70
19,"COc1ccc(S(=O)(=O)N2CCC3(CC2)CC(C(=O)NC2CC2c2ccccc2)=NO3)cc1 (stereo not drawn) [Example 182, 8-(4-methoxy-benzenesulphonyl)-1-oxa-2,8-diaza-spiro[4,5]dec-2-ene-3-carboxylic acid (2-phenyl-cyclopropyl)-amide]",47
20,"O=C(NCc1ccccc1)C1=NOC2(CCN(C(=O)c3ccncc3)CC2)C1 [Example 102, 8-(pyridine-4-carbonyl)-1-oxa-2,8-diaza-spiro[4,5]dec-2-ene-3-carboxylic acid benzylamide]",43
21,"COc1cc(OC)cc(N2CCN(C(=O)C3=NOC4(CCN(S(=O)(=O)c5ccc(Cl)s5)CC4)C3)CC2)c1 [Example 71, [8-(5-chloro-thiophene-2-sulphonyl)-1-oxa-2,8-diaza-spiro[4,5]dec-2-en-3-yl]-[4-(3,5-dimethoxy-phenyl)-piperazin-l-yl]-methanone]",54
22,"O=C(C1=NOC2(CCN(S(=O)(=O)c3cccc(C(F)(F)F)c3)CC2)C1)N1CCN(Cc2ccc3ccccc3c2)CC1 [Example 35, (4-naphthalen-2-ylmethyl-piperazin-l-yl)-[8-(3-trifluoromethyl-benzenesulphonyl)-1-oxa-2,8-diaza-spiro[4,5]dec-2-en-3-yl]-methanone]",50
23,"CC(NC(=O)C1=NOC2(CCN(S(=O)(=O)c3cccs3)CC2)C1)c1cccc2c1OCCO2 (stereo not drawn) [Example 84, 8-(thiophene-2-sulphonyl)-1-oxa-2,8-diaza-spiro[4,5]dec-2-ene-3-carboxylic acid [1-(2,3-dihydro-benzo[1,4]dioxin-5-yl)-ethyl]-amide]",58
24,"C=C(C)CN(CC)C(=O)C1=NOC2(CCN(S(=O)(=O)c3ccc(OC(F)(F)F)cc3)CC2)C1 [Example 103, 8-(4-trifluoromethoxy-benzenesulphonyl)-1-oxa-2,8-diaza-spiro[4,5]dec-2-ene-3carboxylic acid ethyl-(2-methyl-allyl)-amide]",53
25,"O=C(NCC(c1ccccc1)c1ccccc1)C1=NOC2(CCN(S(=O)(=O)c3ccc(Cl)s3)CC2)C1 [Example 79, 8-(5-chloro-thiophene-2-sulphonyl)-1-oxa-2,8-diaza-spiro[4,5]dec-2-ene-3-carboxylic acid (2,2-diphenyl-ethyl)-amide]",83
26,O=C(NCc1cccs1)C1=NOC2(CCN(C(=O)c3ccc(Br)cc3)CC2)C1 [Example 141],61
27,"O=C(NCc1ccccc1)C1=NOC2(CCN(S(=O)(=O)c3cccc(Cl)c3)CC2)C1 [Example 210, 8-(3-chloro-benzenesulphonyl)-1-oxa-2,8-diaza-spiro[4,5]dec-2-ene-3-carboxylic acid benzylamide]",62
28,"O=C(NCc1ccccc1)C1=NOC2(CCN(C(=O)COc3cccc(Cl)c3)CC2)C1 [Example 166, 8-[2-(3-chloro-phenoxy)-acetyl]-1-oxa-2,8-diaza-spiro[4,5]dec-2-ene-3-carboxylic acid benzylamide]",58
29,"COCCOCC(=O)N1CCC2(CC1)CC(C(=O)NCc1ccccc1)=NO2 [Example 87, 8-[2-(2-methoxy-ethoxy)-acetyl]-1-oxa-2,8-diaza-spiro[4,5]dec-2-ene-3-carboxylic acid benzylamide]",42
30,"O=C(C1=NOC2(CCN(S(=O)(=O)c3cc(Cl)ccc3Cl)CC2)C1)N1CCN(Cc2ccccc2)CC1 [Example 209, (4-benzyl-piperazin-l-yl)-[8-(2,5-dichloro-benzenesulphonyl)-1-oxa-2,8-diaza-spiro[4,5]dec-2-en-3-yl]-methanone]",61

# Same assay, conditions: rat cerebrocortex synaptosomes, 10 µM
row,Structure (SMILES),"BTX bond, 10 μM, % inhibition [%]"
1,"COc1ccc(S(=O)(=O)N2CCC3(CC2)CC(C(=O)NC2CCCC2OCc2ccccc2)=NO3)cc1 (stereo not drawn) [Example 169, 8-(4-methoxy-benzenesulphonyl)-1-oxa-2,8-diaza-spiro[4,5]dec-2-ene-3-carboxylic acid (2-benzyloxy-cyclopentyl)-amide]",48
2,"Cc1ccc(S(=O)(=O)N2CCC3(CC2)CC(C(=O)NC2CCCC2OCc2ccccc2)=NO3)cc1 (stereo not drawn) [Example 73, 8-(toluene-4-sulphonyl)-1-oxa-2,8-diaza-spiro[4,5]dec-2-ene-3-carboxylic acid (2-benzyloxy-cyclopentyl)-amide]",75
3,"Cc1ccc(S(=O)(=O)N2CCC3(CC2)CC(C(=O)NC2CCCC2OCc2ccccc2)=NO3)cc1 (stereo not drawn) [Example 67, 8-(toluene-4-sulphonyl)-1-oxa-2,8-diaza-spiro[4,5]dec-2-ene-3-carboxylic acid (2-benzyloxy-cyclopentyl)-amide]",80

# Reference: US8557796B2, “Substituted 1-oxa-2,8-diaza-spiro [4,5] dec-2-ene derivatives and related treatment methods” (Gruenenthal GmbH, priority 2001, dated 2013)
